Here are results for four compounds from patent US10975060B2, “High relaxivity gadolinium chelate compounds for use in magnetic resonance imaging” (BAYER PHARMA AKTIENGESELLSCHAFT, priority 2016, dated 2021).

Format in all cases: physicochemical
The nature of data set [1]: Relaxivity measurements at 1.4 T (MiniSpec mq60, 60 MHz, 37 °C) in water and human plasma. The settings on record: 1.41 T, normalized to Gd. The method, then: Relaxivity Measurements at 1.4 T
Relaxivity measurements at 1.41 T were performed using a MiniSpec mq60 spectrometer (Bruker Analytik, Karlsruhe, Germany) operating at a resonance frequency of 60 MHz and a temperature of 37° C. The T1 relaxation times were determined using the standard inversion recovery (IR) method with a fixed relaxation delay of at least 5×T1. The variable inversion time (TI) was calculated automatically by the standard software of the MiniSpec mq60 (8 steps). The T2 measurements were done by using a Carr-Purcell-Meiboom-Gill (CPMG) pulse sequence, applying a relaxation delay of at least 5×T1.
Each relaxivity measurement was performed using three different Gd concentrations (3 concentrations between 0.05 and 2 mM). The T1 and T2 relaxation times of the example compounds 1 to 10 were measured in different media for example in water and human plasma. Human plasma preparation: For each experiment fresh blood was taken from a volunteer using 10 mL citrate-tubes (Sarstedt S-Monovette 02.1067.001, 10 mL, Citrate). The 10 mL citrate-tubes were carefully inverted 10 times to mix blood and anticoagulant and centrifuged for 15 minutes at 1811 g at room temperature (Eppendorf, Centrifuge 5810R).
The relaxivities ri (where i=1, 2) were calculated on the basis of the measured relaxation rates Ri in water and plasma: Ri=Ri(0)+ri[CGd], where Ri(0) represent the relaxation rate of the respective solvent and CGd the concentration of the compound normalized to the Gadolinium. The Gadolinium concentrations of the investigated solutions were verified by Inductively Coupled Plasma Mass Spectrometry (ICP-MS Agilent 7500a, Waldbronn, Germany).

Data set [2] is described as follows: Relaxivity measurements at 3.0 T (whole body MRI scanner, 37 °C) in water and human plasma. The settings on record: normalized to Gd, average ± standard deviation. The method, then: Relaxivity Measurements at 3.0 T
Relaxivity measurements at 3.0 T were performed with a whole body 3.0 T MRI Scanner (Philips Intera, Philips Healthcare, Hamburg, Germany) using a knee-coil (SENSE-Knee-8, Philips Healthcare, Hamburg, Germany). The sample tubes (CryoTubetm Vials, Thermo Scientific 1.8 mL, Roskilde, Denmark) were positioned in 3 rows of 4 and 5 tubes in a plastic holder in a box filled with water. The temperature was adjusted to 37° C. For the MRI sequence the shortest possible echo-time (TE) with 7.46 milliseconds was used. The inversion times were chosen to optimize the sequence to measure T1 values corresponding to the estimated T1 range of all relaxation times of contrast media containing solutions. The following inversion times (TIs) were applied: 50, 100, 150, 200, 300, 500, 700, 1000, 1400, 2100, 3200, and 4500 milliseconds. The sequence was run with a constant relaxation delay of 3.4 seconds after the registration of the last echo (variable TR in the range from 3450 to 7900 milliseconds). For details of the fit procedure, see Rohrer et. al. (Invest. Radiol. 2005; 40, 11: 715-724). The experimental matrix of the phantom measurement was 320×320.
The relaxivities were evaluated using three different concentrations of each compound (3 concentrations between 0.05 and 2 mM).
The T1 relaxation times of Example compounds were measured in water and human plasma. Human plasma preparation: For each experiment fresh blood was taken from a volunteer using 10 mL citrate-tubes (Sarstedt S-Monovette 02.1067.001, 10 mL, Citrate). The 10 mL citrate-tubes were carefully inverted 10 times to mix blood and anticoagulant and centrifuged for 15 minutes at 1811 g at room temperature (Eppendorf, Centrifuge 5810R).
The relaxivities ri (where i=1, 2) were calculated on the basis of the measured relaxation rates Ri in water and plasma: Ri=Ri(0)+ri[CGd], where Ri(0) represent the relaxation rate of the respective solvent and CGd the concentration of the compound normalized to the Gadolinium (Table 2).

The nature of data set [3]: Water solubility (exploratory, 10 mM Tris-HCl, 20 °C). The note with it: water (10 mM Tris-HCl buffer), pH 7.4. The method, then: The exploratory water solubilities of the compounds were determined at room temperature (20° C.) in 0.5 mL buffer solution (10 mM Tris-HCl) in the microcentrifuge tubes (Eppendorf, 2.0 mL safe-lock caps). The solid compounds were added stepwise to the buffer solution. The suspension was mixed using a shaker (Heidolph Reax 2000) and treated 5 min in an ultrasound bath (Bandelin, Sonorex Super RK255H).

The nature of data set [4]: Dynamic CT diffusion phantom study (dialysis cassette in fetal bovine serum). The note with it: dialysis cassette 20,000 MWCO, 20 mmol Gd/L, CT signal over 30 h. The method, then:
The described dynamic CT diffusion study compares the ability of Examples 1-10 and Reference compounds 1 and 4 to pass a semipermeable membrane (20 kDa). A 128-row clinical CT device (SOMATOM Definition, 128; Siemens Healthcare, Forchheim, Germany) was used to monitor the diffusion through a semipermeable membrane at 100 kV and 104 mA. Single measurements were performed at 0 min, 1 min, 2 min, 3 min, 5 min, 10 min, 15 min, 20 min, 30 min, 45 min, 60 min, 2 h, 3 h, 5 h, 7 h, 22 h, 24 h, 30 h after placing the dialysis cassette (Slide-A-Lyser, 20,000 MWCO, 0.1-0.5 mL Capacity, Thermo Scientific, Roskilde, Denmark) filled with contrast agent in fetal bovine serum solution (FBS, Sigma, F7524). The images were reconstructed with a slice thickness of 2.4 mm and a B30 convolution kernel. The used concentration in the dialysis cassettes of the investigated Examples 1-10 and Reference compounds 1 and 4 was 20 mmol Gd/L.
The imaging results for all investigated Examples and the Reference compounds 1 and 4 for the time points 0 min and 30 h after placing the cassettes in the FBS solution are depicted in FIG. 1. For image analysis, regions of interest were manually drawn on 1 centrally located slice for each time point (a representative measurement region is indicated in FIG. 1: Image RC1).

On to `O=C([O-])CN1CCN(CC(=O)[O-])CCN(CC(=O)N(CC(=O)NCC(CNC(=O)CN(C(=O)CN2CCN(CC(=O)[O-])CCN(CC(=O)[O-])CCN(CC(=O)[O-])CC2)C2CCCC2)(CNC(=O)CN(C(=O)CN2CCN(CC(=O)[O-])CCN(CC(=O)[O-])CCN(CC(=O)[O-])CC2)C2CCCC2)CNC(=O)CN(C(=O)CN2CCN(CC(=O)[O-])CCN(CC(=O)[O-])CCN(CC(=O)[O-])CC2)C2CCCC2)C2CCCC2)CCN(CC(=O)[O-])CC1.[Gd+3].[Gd+3].[Gd+3].[Gd+3]` [Example 8, Tetragadolinium [4,10-bis(carboxylatomethyl)-7-{3,13-dicyclopentyl-8,8-bis({[(cyclopentyl{[4,7,10-tris(carboxylatomethyl)-1,4,7,10-tetraazacyclododecan-1-yl]acetyl}-amino)acetyl]amino}methyl)-2,5,11,14-tetraoxo-15-[4,7,10-tris(carboxylatomethyl)-1,4,7,10-tetraazacyclododecan-1-yl]-3,6,10,13-tetraazapentadec-1-yl}-1,4,7,10-tetra-azacyclododecan-1-yl]acetate], for which, in data set [1], the r1 human plasma stood at 14.1 L/mmol/s and the r1 water amounted to 11.7 L/mmol/s. In data set [2], this compound showed a r1 human plasma of 12.0 ± 0.4 L/mmol/s and a r1 water of 10.7 ± 0.1 L/mmol/s. The Solubility in data set [3] was over 1000 mg/100 mL. For the same compound, the “Diffusion half-live (20 kDa)” value in data set [4] is 10.5 h.
In data set [1], `CCOCCN(CC(=O)NCC(CNC(=O)CN(CCOCC)C(=O)CN1CCN(CC(=O)[O-])CCN(CC(=O)[O-])CCN(CC(=O)[O-])CC1)(CNC(=O)CN(CCOCC)C(=O)CN1CCN(CC(=O)[O-])CCN(CC(=O)[O-])CCN(CC(=O)[O-])CC1)CNC(=O)CN(CCOCC)C(=O)CN1CCN(CC(=O)[O-])CCN(CC(=O)[O-])CCN(CC(=O)[O-])CC1)C(=O)CN1CCN(CC(=O)[O-])CCN(CC(=O)[O-])CCN(CC(=O)[O-])CC1.[Gd+3].[Gd+3].[Gd+3].[Gd+3]` [Example 4, Tetragadolinium {4,10-bis(carboxylatomethyl)-7-[16-(2-ethoxyethyl)-11,11-bis[({[(2-ethoxyethyl){[4,7,10-tris(carboxylatomethyl)-1,4,7,10-tetraazacyclododecan-1-yl]-acetyl}amino]acetyl}amino)methyl]-8,14,17-trioxo-6-{[4,7,10-tris(carboxylatomethyl)-1,4,7,10-tetraazacyclododecan-1-yl]acetyl}-3-oxa-6,9,13,16-tetraazaoctadecan-18-yl]-1,4,7,10-tetraazacyclododecan-1-yl}acetate] yielded a r1 human plasma of 12.5 L/mmol/s and a r1 water of 11.1 L/mmol/s. Besides, in data set [2], the r1 human plasma came to 11.3 ± 0.01 L/mmol/s and the r1 water is 10.1 ± 0.2 L/mmol/s. In data set [3], this compound displayed a Solubility of over 1000 mg/100 mL. For the same compound, in data set [4], the “Diffusion half-live (20 kDa)” value turned out to be 10.1 h.
In data set [1], `O=C([O-])CN1CCN(CC(=O)[O-])CCN(CC(=O)N(CC(=O)NCC(CNC(=O)CN(C(=O)CN2CCN(CC(=O)[O-])CCN(CC(=O)[O-])CCN(CC(=O)[O-])CC2)C2CC2)(CNC(=O)CN(C(=O)CN2CCN(CC(=O)[O-])CCN(CC(=O)[O-])CCN(CC(=O)[O-])CC2)C2CC2)CNC(=O)CN(C(=O)CN2CCN(CC(=O)[O-])CCN(CC(=O)[O-])CCN(CC(=O)[O-])CC2)C2CC2)C2CC2)CCN(CC(=O)[O-])CC1.[Gd+3].[Gd+3].[Gd+3].[Gd+3]` [Example 7, Tetragadolinium [4,10-bis(carboxylatomethyl)-7-{3,13-dicyclopropyl-8,8-bis({[(cyclopropyl{[4,7,10-tris(carboxylatomethyl)-1,4,7,10-tetraazacyclododecan-1-yl]acetyl}-amino)acetyl]amino}methyl)-2,5,11,14-tetraoxo-15-[4,7,10-tris(carboxylatomethyl)-1,4,7,10-tetraazacyclododecan-1-yl]-3,6,10,13-tetraazapentadec-1-yl}-1,4,7,10-tetra-azacyclododecan-1-yl]acetate] returned a r1 human plasma of 12.1 L/mmol/s and a r1 water of 10.6 L/mmol/s. In addition, in data set [2], the r1 human plasma worked out at 11.1 ± 0.1 L/mmol/s and the r1 water was found to be 9.7 ± 0.1 L/mmol/s. Besides, the Solubility in data set [3] is over 1000 mg/100 mL. Moreover, in data set [4], the “Diffusion half-live (20 kDa)” value worked out at 14.0 h.
Turning to `CCN(CC(=O)NCC(CNC(=O)CN(CC)C(=O)CN1CCN(CC(=O)[O-])CCN(CC(=O)[O-])CCN(CC(=O)[O-])CC1)(CNC(=O)CN(CC)C(=O)CN1CCN(CC(=O)[O-])CCN(CC(=O)[O-])CCN(CC(=O)[O-])CC1)CNC(=O)CN(CC)C(=O)CN1CCN(CC(=O)[O-])CCN(CC(=O)[O-])CCN(CC(=O)[O-])CC1)C(=O)CN1CCN(CC(=O)[O-])CCN(CC(=O)[O-])CCN(CC(=O)[O-])CC1.[Gd+3].[Gd+3].[Gd+3].[Gd+3]` [Example 2, Tetragadolinium [4,10-bis(carboxylatomethyl)-7-{3,13-diethyl-8,8-bis({[(ethyl{[4,7,10-tris(carboxylatomethyl)-1,4,7,10-tetraazacyclododecan-1-yl]acetyl}amino)acetyl]-amino}methyl)-2,5,11,14-tetraoxo-15-[4,7,10-tris(carboxylatomethyl)-1,4,7,10-tetraaza-cyclododecan-1-yl]-3,6,10,13-tetraazapentadec-1-yl}-1,4,7,10-tetraazacyclododecan-1-yl]acetate], in data set [1], the r1 human plasma came to 11.6 L/mmol/s and the r1 water worked out at 10.4 L/mmol/s. In data set [2], this compound yielded a r1 human plasma of 11.3 ± 0.1 L/mmol/s and a r1 water of 9.4 ± 0.1 L/mmol/s. In data set [3], this compound yielded a Solubility of over 1000 mg/100 mL. Further, in data set [4], the “Diffusion half-live (20 kDa)” value came to 13.3 h.
